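Five concentrations, 48 hours, 96-well plates. GI50: concentration for 50% inhibition of growth.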 The source made the active and inactive calls. Rule as the data show it: active = GI50 up to about 1.1 µM and inactive = higher.
Experiments:
Assay in all cases: NCI tumour cell line growth inhibition, 48 h
LOX IMVI = system: LOX IMVI
OVCAR-3 = system: OVCAR-3
DU-145 = system: DU-145
CAKI-1 = system: CAKI-1
RPMI-8226 = system: RPMI-8226
786-0 = system: 786-0
OVCAR-4 = system: OVCAR-4
MDA-N = system: MDA-N
NCI/ADR-RES = system: NCI/ADR-RES
SK-MEL-5 = system: SK-MEL-5
COLO 205 = system: COLO 205
K562 = system: K562
SF-268 = system: SF-268
OVCAR-5 = system: OVCAR-5
NCI-H226 = system: NCI-H226
UO-31 = system: UO-31
HOP-62 = system: HOP-62
BT-549 = system: BT-549
HL-60 = system: HL-60
SN12C = system: SN12C
Hs-578T = system: Hs-578T
A498 = system: A498
UACC-62 = system: UACC-62
A549 = system: A549
PC-3 = system: PC-3
SF-295 = system: SF-295
NCI-H460 = system: NCI-H460
UACC-257 = system: UACC-257
SR = system: SR
ACHN = system: ACHN
MCF7 = system: MCF7
HCT-15 = system: HCT-15
MOLT-4 = system: MOLT-4
SK-MEL-2 = system: SK-MEL-2
RXF 393 = system: RXF 393
EKVX = system: EKVX
SK-OV-3 = system: SK-OV-3
SNB-75 = system: SNB-75
CCRF-CEM = system: CCRF-CEM
Malme-3M = system: Malme-3M
HCC 2998 = system: HCC 2998
NCI-H23 = system: NCI-H23
SW-620 = system: SW-620
HOP-92 = system: HOP-92
T47D = system: T47D
SF-539 = system: SF-539
SK-MEL-28 = system: SK-MEL-28
IGROV-1 = system: IGROV-1
KM12 = system: KM12
OVCAR-8 = system: OVCAR-8
TK-10 = system: TK-10
U-251 = system: U-251
SNB-19 = system: SNB-19
NCI-H522 = system: NCI-H522
M14 = system: M14
MDA-MB-435 = system: MDA-MB-435
MDA-MB-231 = system: MDA-MB-231
HT-29 = system: HT-29
HCT-116 = system: HCT-116
SNB-78 = system: SNB-78
DLD-1 = system: DLD-1
DMS-114 = system: DMS-114
M19-MEL = system: M19-MEL
LXFL 529 = system: LXFL 529
HOP-18 = system: HOP-18
DMS-273 = system: DMS-273

Measured: GI50

N#Cc1cc2c(cc1C#N)SCCSCCCSCCS2
14.6 µM: HCT-15
inactive: LOX IMVI 6.31 µM | OVCAR-3 25.2 µM | DU-145 56.5 µM | CAKI-1 22.8 µM | RPMI-8226 > 100 µM | 786-0 5.09 µM | OVCAR-4 8.93 µM | MDA-N > 100 µM | NCI/ADR-RES 30.5 µM | SK-MEL-5 > 100 µM | COLO 205 > 84.3 µM | K562 > 100 µM | SF-268 10.3 µM | OVCAR-5 > 72.3 µM | NCI-H226 41.1 µM | UO-31 > 53.3 µM | HOP-62 1.71 µM | BT-549 15 µM | HL-60 > 10 µM | SN12C 41.9 µM | Hs-578T 3.96 µM | A498 40.8 µM | UACC-62 9.93 µM | A549 > 83.9 µM | PC-3 21.9 µM | SF-295 5.47 µM | NCI-H460 15.2 µM | UACC-257 > 87.9 µM | SR 36.4 µM | ACHN 6.93 µM | MCF7 28.2 µM | MOLT-4 > 89.9 µM | SK-MEL-2 17.8 µM | RXF 393 5.92 µM | EKVX > 48.9 µM | SK-OV-3 12 µM | SNB-75 4.61 µM | CCRF-CEM > 48.3 µM | Malme-3M 20.1 µM | HCC 2998 > 72.4 µM | NCI-H23 16.1 µM | SW-620 29.4 µM | HOP-92 2.49 µM | T47D 32.4 µM | SF-539 10.4 µM | SK-MEL-28 > 100 µM | IGROV-1 24.7 µM | KM12 > 100 µM | OVCAR-8 12.2 µM | TK-10 2.82 µM | U-251 5.32 µM | SNB-19 6.79 µM | NCI-H522 25.8 µM | M14 38.3 µM | MDA-MB-435 > 100 µM | MDA-MB-231 10 µM | HT-29 > 100 µM | HCT-116 21.3 µM

COc1cc(Br)c(/C=N\c2cccc3ccc(OS(=O)(=O)c4cccc([N+](=O)[O-])c4)cc23)cc1OC
inactive: LOX IMVI 29.8 µM | OVCAR-3 32.7 µM | CAKI-1 19.1 µM | SNB-78 12 µM | RPMI-8226 24 µM | 786-0 25.4 µM | OVCAR-4 28.1 µM | SK-MEL-5 27.4 µM | COLO 205 66.8 µM | K562 21.1 µM | SF-268 19.4 µM | OVCAR-5 > 100 µM | NCI-H226 20.4 µM | UO-31 20.1 µM | HOP-62 34.4 µM | SN12C 33.9 µM | A498 66.5 µM | UACC-62 23.1 µM | A549 52.6 µM | SF-295 20.4 µM | NCI-H460 54.8 µM | UACC-257 41.1 µM | DLD-1 35.5 µM | SR 20.2 µM | ACHN 32.8 µM | MOLT-4 8.18 µM | SK-MEL-2 39.4 µM | RXF 393 16.3 µM | EKVX 77.3 µM | SK-OV-3 > 100 µM | DMS-114 14.7 µM | CCRF-CEM 12.2 µM | Malme-3M 36 µM | HCC 2998 > 100 µM | NCI-H23 12.5 µM | SW-620 48.1 µM | HOP-92 2.44 µM | SF-539 16.9 µM | M19-MEL 36.1 µM | SK-MEL-28 6.52 µM | IGROV-1 58.2 µM | KM12 30.7 µM | OVCAR-8 24 µM | LXFL 529 14.3 µM | U-251 19.1 µM | SNB-19 60.1 µM | NCI-H522 22.1 µM | HOP-18 > 100 µM | HT-29 34.7 µM | HCT-116 30.5 µM
24.5 µM: HCT-15

CC1=CC(C)C(C)N(CC2=NCCN2)c2ccccc21 (centres undefined)
inactive: LOX IMVI 38.1 µM | OVCAR-3 56.8 µM | DU-145 > 69.5 µM | CAKI-1 > 86.9 µM | RPMI-8226 38.7 µM | 786-0 83.2 µM | OVCAR-4 > 100 µM | MDA-N 52.5 µM | NCI/ADR-RES 99.5 µM | SK-MEL-5 20.1 µM | COLO 205 16.9 µM | K562 36.9 µM | SF-268 72.8 µM | OVCAR-5 > 57.7 µM | NCI-H226 68.1 µM | UO-31 47.3 µM | HOP-62 > 100 µM | BT-549 > 100 µM | HL-60 > 47 µM | SN12C > 100 µM | Hs-578T > 74.3 µM | A498 > 59.8 µM | UACC-62 49.3 µM | A549 > 87.3 µM | PC-3 46.3 µM | SF-295 67.3 µM | NCI-H460 60.8 µM | UACC-257 19.5 µM | SR 26 µM | ACHN 97.9 µM | MCF7 53.7 µM | MOLT-4 55 µM | SK-MEL-2 44.8 µM | RXF 393 27.6 µM | EKVX > 100 µM | SK-OV-3 96.8 µM | SNB-75 46 µM | CCRF-CEM 45.6 µM | Malme-3M 21.4 µM | HCC 2998 17.9 µM | NCI-H23 > 100 µM | SW-620 > 100 µM | HOP-92 11 µM | T47D > 57.8 µM | SF-539 62.1 µM | SK-MEL-28 18.7 µM | IGROV-1 > 100 µM | KM12 > 68.4 µM | OVCAR-8 > 80.9 µM | TK-10 54.2 µM | U-251 76.6 µM | SNB-19 > 100 µM | NCI-H522 29.2 µM | M14 17.8 µM | MDA-MB-435 46.5 µM | MDA-MB-231 32.9 µM | HT-29 18.7 µM | HCT-116 40 µM
> 100 µM: HCT-15

O=[N+]([O-])c1ccc(N2N=C(c3ccc(NCc4nc5ccccc5[nH]4)cc3)CC2c2ccco2)cc1 (centres undefined)
21.3 µM: HCT-15
inactive: LOX IMVI 18.5 µM | OVCAR-3 21.8 µM | CAKI-1 48.6 µM | RPMI-8226 12.4 µM | 786-0 44 µM | OVCAR-4 20.2 µM | SK-MEL-5 14.2 µM | COLO 205 30.8 µM | K562 20.4 µM | SF-268 34.8 µM | OVCAR-5 49 µM | UO-31 6.53 µM | HOP-62 37.2 µM | HL-60 17.6 µM | SN12C 20.3 µM | A498 28.8 µM | UACC-62 19.5 µM | A549 34.8 µM | SF-295 23.6 µM | NCI-H460 24.8 µM | DLD-1 29.4 µM | SR 8.85 µM | ACHN 22.8 µM | MOLT-4 10.4 µM | SK-MEL-2 > 10 µM | RXF 393 42.2 µM | SK-OV-3 82.2 µM | SNB-75 27.9 µM | DMS-114 18.1 µM | CCRF-CEM 21.6 µM | Malme-3M 28.5 µM | DMS-273 21.2 µM | HCC 2998 30.9 µM | NCI-H23 19.9 µM | SW-620 34.7 µM | HOP-92 32.2 µM | SF-539 26.1 µM | M19-MEL 29.3 µM | SK-MEL-28 37.4 µM | IGROV-1 33 µM | KM12 16.7 µM | OVCAR-8 18.1 µM | TK-10 47.2 µM | LXFL 529 11.1 µM | U-251 29.8 µM | SNB-19 23.4 µM | NCI-H522 15.5 µM | M14 23.5 µM | HOP-18 50.5 µM | HT-29 27.5 µM | HCT-116 16.2 µM

CC(=O)Nc1ccc(C(=O)NN2C(=O)C(Cl)/C2=C/c2ccco2)cc1 (centres undefined)
inactive: OVCAR-3 > 100 µM | RPMI-8226 > 100 µM | SK-MEL-5 > 100 µM | COLO 205 > 100 µM | K562 > 100 µM | SF-268 > 100 µM | OVCAR-5 > 100 µM | NCI-H226 > 100 µM | UO-31 > 100 µM | HOP-62 > 100 µM | HL-60 > 100 µM | UACC-62 > 100 µM | A549 > 100 µM | SF-295 > 100 µM | NCI-H460 > 100 µM | UACC-257 > 100 µM | DLD-1 > 100 µM | SR > 100 µM | ACHN > 100 µM | MOLT-4 > 100 µM | SK-MEL-2 > 100 µM | SK-OV-3 > 100 µM | SNB-75 > 100 µM | CCRF-CEM > 100 µM | Malme-3M > 100 µM | HCC 2998 > 100 µM | NCI-H23 > 100 µM | SW-620 > 100 µM | HOP-92 > 100 µM | SF-539 > 100 µM | M19-MEL > 100 µM | SK-MEL-28 > 100 µM | IGROV-1 > 100 µM | KM12 > 100 µM | OVCAR-8 > 100 µM | TK-10 > 100 µM | LXFL 529 > 100 µM | U-251 > 100 µM | SNB-19 > 100 µM | NCI-H522 > 100 µM | HOP-18 > 100 µM | HT-29 > 100 µM | HCT-116 > 100 µM
